# Assay results as given in US7705049B2, “Methods for treating non-melanoma cancers with PABA” (New York University, priority 2004, dated 2010).
# Tests used:
# [1] = system: MCF7 breast carcinoma cells; assay: MTT proliferation assay, MCF7 cells; type: cell-based; conditions: Homo sapiens, PABA 0.1 mg/ml 3 days, 5-FU 1 μM, ^90Y-huBrE-3 1 μCi, MTT after 72 hours
# Experimental: Pharmaceutical grade ^90Y was buffered in 0.05M acetate and incubated with MX-DTPA-huBrE-3 and 5 mM EDTA for 1 hr, followed by purification on a Bio-Gel P6 column eluted with 1% human serum albumin to generate radiolabeled ^90Y-huBrE-3 antibody. MCF7 breast carcinoma cells were incubated with and without PABA (0.1 mg/ml) in DMEM media for 3 days, and then exposed to 5-fluorouracil (5-FU) in concentrations of 0, 0.05, 0.1, 1.0 and 5.0 μM, and concentrations of ^90Y-huBrE-3 in concentrations of 0, 1.0, 2.0, and 4 μCi. Effects on proliferation were monitored after 72 hours using a commercially available MTT assay.
# [2] = system: murine 4T1 breast carcinoma cells; assay: Chick embryo CAM tumor growth, 4T1 breast carcinoma; type: in vivo, chick embryos; conditions: 4T1 on CAM; PABA 100 ug/ml; 7 days
# Experimental: (§1) Lewis Lung carcinoma cells and murine 4T1 breast carcinoma cells (available from American Type Culture Collection, Rockville, MD-No. CRL-2539), were cultured in growth medium in the presence or absence of PABA (100 ug/ml) for at least 7 days. The cells were harvested, washed and resuspended in sterile PBS, followed by implantation on the chorioallantoic membranes (CAM) of 10-day old chick embryos. Embryos were allowed to incubate for 24 hours. The embryos were then treated with either a single fraction dose of ionizing radiation (5.0 Gy) or TAXOL® (0.01 μM) and allowed to incubate for 7 days. Tumor growth was assessed by measuring the wet weights of resected tumors (5-10 tumors per condition).
# actin = assay: Western blot, actin; type: cell-based
# Experimental: (§2) Western blot analysis was performed to confirm the altered expression of CDC25A, c-Myc and BRCA-2 at the protein level. G361 melanoma cells were cultured for 2 weeks in the presence or absence of PABA. The cells were harvested and lysed in 1.0% Triton-X-100 lysis buffer. Equal amounts of total cell lysates (50 μg/lane) were separated by 10% SDS PAGE and the proteins were transferred to nitrocellulose membranes. The membranes were probed with monoclonal antibodies P4C10 (anti-β1 integrin), 3303 (anti-BRCA-2) and Ab-3 (anti-CDC25A) or secondary antibody only. […] BRCA-2 expression was decreased in cells treated with PABA compared to cells grown in the absence of PABA. […] In similar studies, c-Myc expression in 4T1 breast carcinoma cells and G361 melanoma cells was examined by Western blot. The nitrocellulose membranes were probed with anti-c-Myc monoclonal antibody 9402 (available from Cell Signaling Technology, Beverly, Mass.) and anti-actin monoclonal antibody. […] No change in actin levels was observed.
# P21^CIP1 is a cell cycle dependent kinase inhibitor, which has a role in regulating the sensitivity of breast cancer cells to chemotherapeutic agents such as TAXOL®. 4T1 breast cancer cells were incubated in the presence or absence of PABA (100 μg/ml) for 7 days. The cells were washed and cell lysates were prepared. Levels of P21^CIP1 were analyzed by Western blot. […]
# G361 melanoma cells = assay: Cell cycle analysis by flow cytometry, G361; type: cell-based; conditions: PABA 100 μg/ml 2 weeks, untreated 12%
# Experimental: (§3) G361 melanoma cells and 4T1 breast cancer cells were cultured in the presence or absence of PABA (100 μg/ml) for 2 weeks. The tumor cells were synchronized by serum starvation and cultured for 2 hours in 10% serum-containing medium. The cells were harvested, washed, fixed and stained with propidium iodide. Cell cycle analysis was performed by flow cytometry. The relative levels of untreated G361 cells (12%) and 4T1 cells (10%) in S-phase were low compared. FIG. 9. In contrast, 72% of PABA-treated G361 cells and 40% of PABA-treated 4T1 cells were in S-phase.
# [3] = system: Lewis Lung carcinoma cells; conditions: cited from earlier work
# β1 integrin subunit = assay: Western blot, β1 integrin; type: cell-based; conditions: G361 melanoma cells; 2 weeks with PABA
# Experimental: as §2
# [4] = system: cell cycle control genes in B16F10 and G361 melanoma cells; assay: AFFYMATRIX cDNA array analysis of tumor cells; type: cell-based, human and mouse; conditions: PABA 100 μg/ml
# Experimental: (§4) An AFFYMATRIX™ based cDNA array analysis was performed on tumor cells cultured in the presence or absence of PABA (100 μg/ml). A number of genes within the tumor cells were differentially expressed following PABA treatment. Experiments were conducted on genes that were consistently altered in both human and mouse tumor cells. […] To confirm these findings, the expression of CDC25A was analyzed. 4T1 breast carcinoma cells and B16F10 melanoma cells were incubated in the presence or absence of PABA. After 7 days, the RNA was isolated. The relative levels of CDC25A mRNA were examined by RT-PCR or real time PCR. FIG. 8.
# CDC25A = assay: Western blot, CDC25A; type: cell-based; conditions: G361 melanoma cells; 2 weeks with PABA
# Experimental: as §2
# [5] = cited from earlier work
# [6] = system: 4T1 breast carcinoma cells; assay: Subcutaneous 4T1 breast tumor growth and lung metastasis in mice; type: in vivo
# Experimental: Sub-confluent cultures of 4T1 breast carcinoma cells were harvested, washed and resuspended in PBS. Female nude mice or Balb/c strain mice were injected subcutaneously with approximately 1×10^6 tumor cells. Subcutaneous tumors were allowed to grow for 7 days, at which time the mice were treated daily by intraperitoneal injections of the following: • PABA alone (500 μg/mouse) • Radiation alone (9.0 Gy) • PABA and radiation • Docetaxel (8.0 mg/kg 1 time/week, intraperitoneal administration) • PABA and docetaxel (daily PABA and intraperitoneal administration of 8.0 mg/kg docetaxel 1 time/week) Untreated mice were used as a control. Tumor growth was gauged by weekly caliper measurements. After 28 days, the mice were sacrificed and tumor volumes were calculated by standard methods using the formula […], where V=volume, L=length and W=width.
# CDC25A mRNA = CDC25A mRNA by RT-PCR; type: cell-based; conditions: 7 days
# Experimental: as §4
# melanogenesis = conditions: in vitro and in vivo, alone or in combination with chemotherapy or radiation therapy; cited from earlier work
# [7] = system: Lewis Lung carcinoma cells; assay: Chick embryo CAM tumor growth, Lewis Lung carcinoma; type: in vivo, chick embryos; conditions: PABA 100 ug/ml, TAXOL 0.01 μM, 7 days
# Experimental: as §1, with “days.” for “days. Tumor growth was assessed by measuring the wet weights of resected tumors (5-10 tumors per condition).”
# BRCA-2 = assay: Western blot, BRCA-2; type: cell-based; conditions: G361 melanoma cells; 2 weeks with PABA
# Experimental: as §2
# 4T1 breast cancer cells = assay: Cell cycle analysis by flow cytometry, 4T1; type: cell-based; conditions: PABA 100 μg/ml 2 weeks, untreated 10%
# Experimental: as §3
# [8] = system: H460 non-small cell lung cancer cells; assay: Reactive oxygen species by FACS; type: cell-based; conditions: PABA 100 μg/ml
# Experimental: H460 non-small cell lung cancer cells were grown in the presence or absence of PABA (100 μg/ml) in RPMI-1640 media containing 10% fetal calves serum, 1% penn/strep and 1% NaPyruvate. After 24 hours, a portion of the cells were exposed to 0.01 bortezomib (10 nM) for an additional 24 hours. […] The cells were monitored for ROS by the addition of dihydrothidine at a concentration of 5 μM for 15 minutes followed by fixation in ethanol and analysis by FACS. […] FIG. 10. Cells treated with PABA and bortezomib had about a 2 fold increase in ROS compared to cells treated with bortezomib alone.
# P21^CIP1 = assay: Western blot, P21^CIP1; type: cell-based; conditions: 4T1 breast cancer cells; PABA 100 μg/ml 7 days
# Experimental: P21^CIP1 is a cell cycle dependent kinase inhibitor, which has a role in regulating the sensitivity of breast cancer cells to chemotherapeutic agents such as TAXOL®. 4T1 breast cancer cells were incubated in the presence or absence of PABA (100 μg/ml) for 7 days. The cells were washed and cell lysates were prepared. Levels of P21^CIP1 were analyzed by Western blot. Equal amounts (50 μg/lane) were separated by SDS PAGE and transferred to nitrocellulose membranes. The membranes were probed with anti-P21^CIP1 or anti-actin monoclonal antibodies.
# c-Myc = assay: Western blot, c-Myc; type: cell-based
# Experimental: as §2
# MCF-7 xenograft = conditions: subtherapeutic doses; cited from earlier work
# [9] = system: reactive oxygen species (ROS); conditions: 100 nM, 24 hours exposure; cited from earlier work
# [10] = system: hormone receptor-positive tumors; conditions: 3-year; cited from earlier work
# [11] = system: stage II or stage III breast cancer; conditions: cited from earlier work
# [12] = system: SKOV-3 ovarian carcinoma cells; assay: MTT proliferation assay, SKOV-3 cells; type: cell-based; conditions: topotecan 0.1 uM alone, compared to untreated controls
# Experimental: Similarly, SKOV-3 ovarian carcinoma cells were incubated with or without PABA at 0.1 mg/ml in DMEM for 3 days and subsequently exposed to topotecan at concentrations of 0, 0.1, 0.5 and 2.0 μM, and ^90Y-huBrE-3 at concentrations of 0, 1.0, 2.0, and 4.0 μCi, and evaluated using an MTT assay after 72 hrs.
structure (smiles),measurement,setting,value
"O=c1[nH]cc(F)c(=O)[nH]1 [5-FU, 5-fluorouracil]",inhibition at 1 µM,[1],~25%
"Nc1ccc(C(=O)O)cc1 [PABA, p-amino-benzoic acid]",effect on 4T1 breast carcinoma tumor growth,[2],Neither PABA alone nor a single fraction dose of ionizing radiation had any effect
same,actin levels,"actin; 4T1 and G361 cells, c-Myc blots",No change
same,level of actin,"actin; 4T1 breast cancer cells, PABA 100 μg/ml 7 days",Little change
same,cells in S-phase,G361 melanoma cells,72%
same,in vitro proliferation of Lewis Lung carcinoma cells,[3],inhibit the in vitro proliferation
same,β1 integrin subunit expression,β1 integrin subunit,no change
same,BRCA-2 gene expression,[4],down-regulated
same,H2A histone gene expression,[4],down-regulated
same,H2B histone gene expression,[4],down-regulated
same,P21^CIP1 gene expression,[4],down-regulated
same,CDC25A protein expression,CDC25A,markedly increased
same,time of peak plasma concentration after ingestion,[5]; after ingestion,about ¾
same,mean half life,[5]; in vivo,about 0.5 hours
same,reduction of mean tumor volume compared to untreated control mice,"[6]; PABA 500 μg/mouse daily i.p., radiation 9.0 Gy, 28 days (FIG. 4)",about 26%
same,increase in levels of CDC25A mRNA compared to untreated controls,CDC25A mRNA; 4T1 breast carcinoma cells,about 2 fold
same,increase in levels of CDC25A mRNA compared to untreated controls,CDC25A mRNA; B16F10 melanoma cells,about 2 fold
same,melanogenesis,melanogenesis,inhibits melanogenesis
same,effect on growth of Lewis Lung tumors,[7],neither PABA nor TAXOL® alone inhibited the growth
same,BRCA-2 protein expression,BRCA-2,decreased
same,cells in S-phase,4T1 breast cancer cells,40%
same,increase in ROS compared to untreated cells,[8],3 fold
same,levels of P21^CIP1,P21^CIP1,significantly reduced
same,c-Myc protein expression,c-Myc; 4T1 cells,significant up-regulation
same,c-Myc protein expression,c-Myc; G361 cells,significant up-regulation
"CC(=O)O[C@H]1C(=O)[C@@]2(C)[C@H]([C@H](OC(=O)c3ccccc3)[C@]3(O)C[C@H](OC(=O)[C@H](O)[C@@H](NC(=O)c4ccccc4)c4ccccc4)C(C)=C1C3(C)C)[C@]1(OC(C)=O)CO[C@@H]1C[C@@H]2O [TAXOL®, paclitaxel, reference compound]",responses with either treatment modality alone,MCF-7 xenograft,no responses
same,effect on growth of Lewis Lung tumors,[7],neither PABA nor TAXOL® alone inhibited the growth
CC(C)C[C@H](NC(=O)[C@H](Cc1ccccc1)NC(=O)c1cnccn1)B(O)O [bortezomib],induction of reactive oxygen species (ROS),[9],actively induce reactive oxygen species (ROS)
"CC(=O)O[C@@]12CO[C@@H]1C[C@H](O)[C@@]1(C)C(=O)[C@H](O)C3=C(C)[C@@H](OC(=O)[C@H](O)[C@@H](NC(=O)OC(C)(C)C)c4ccccc4)C[C@@](O)([C@@H](OC(=O)c4ccccc4)[C@H]21)C3(C)C [docetaxel, reference compound]",reduction of tumor growth,"[6]; docetaxel 8.0 mg/kg 1 time/week i.p., PABA 500 μg/mouse daily, 28 days (FIG. 3)",~45%
CC/C(=C(\c1ccccc1)c1ccc(OCCN(C)C)cc1)c1ccccc1 [tamoxifen],disease-free survival,[10],67%
same,overall survival,[10],85%
same,overall survival,[11]; at 10 years,36%
same,local-regional recurrence,"[11]; median follow-up of 10 years, tamoxifen 30 mg daily for 1 year",35%
CC[C@@]1(O)C(=O)OCc2c1cc1n(c2=O)Cc2cc3c(CN(C)C)c(O)ccc3nc2-1 [topotecan],inhibition of proliferation,[12],minimally
